From ChEMBL document CHEMBL5579898, “Between Theory and Practice: Computational/Experimental Integrated Approaches to Understand the Solubility and Lipophilicity of PROTACs” (J Med Chem, 2024) come the findings set out here.

Values after ≈ are worked out from the molar mass of the structure shown. Non-standard residues stand in square brackets, D forms with d. Residues, ends and D or L forms follow the SMILES beside them. *: point of attachment. X1 = Fc1ccc(-c2csc(N3CCOCC3)n2)c(OCCOCCOCCN*)c1F; X2 = O=C(NCCCCCCN*)c1cccc2sc(N3CCOCC3)nc12; Dip = N[C@H](C(=O)O)C(c1ccccc1)c1ccccc1; Chg = N[C@H](C(=O)O)C1CCCCC1; NMeA = CN[C@@H](C)C(=O)O

Holding throughout (assay type): physicochemical
The nature of series [1]: Distribution coefficient, logD of compound in n-Octanol/PBS at pH 7.4 incubated for 30 mins under shaking condition by UV-Vis spectroscopic analysis. To be noted: for logD: octanol/water, pH 7.4, 0.5 h, BLD = below limit of detection; for logD at 0.5 h: n-octanol/PBS, pH 7.4.
Series [2] can be described thus: Distribution coefficient, logD of compound in n-Octanol/PBS at pH 7.4 incubated for 30 mins under shaking condition by UHPLC-MS analysis.
Series [3] in a line: Kinetic solubility of the compound incubated for 60 mins under shaking condition by UV-Vis spectroscopic analysis. To be noted: 1 h.
Series [4] is described as follows: Kinetic solubility of the compound incubated for 60 mins under shaking condition by UHPLC-MS analysis. To be noted: 1 h.
Series [5] in a line: Kinetic solubility of the compound in universal buffer at pH 7.4 incubated for 60 mins under shaking condition by UHPLC-MS analysis. The note with it: read-out: Kinetic_solubility.
A short description of series [6]: Kinetic solubility of the compound in PBS buffer at 50 mM pH 7.4 incubated for 60 mins under shaking condition by UHPLC-MS analysis. The note with it: read-out: Kinetic_solubility.
Series [7] can be described thus: Dissociation constant, pKa of the compound.

In general, logD refers to the decadic logarithm of the distribution of all forms, ionised or not, between an organic phase and buffer at a given pH. A low value points to lower lipophilicity. On to `Cc1ncsc1-c1ccc(CNC(=O)[C@@H]2C[C@@H](O)CN2C(=O)[C@@H](NC(=O)CCCCOCCCCCOCCCCCCNc2cccc3c2C(=O)N(C2CCC(=O)NC2=O)C3=O)C(C)(C)C)cc1` (stereo partly drawn), for which the logD result in series [1] is “Bld”. For the same molecule, the logD at 0.5 h in series [2] turned out to be 5.2. The “log(Kinetic_solubility)” value is listed as “Bld” in series [3] (BLD = below limit of detection) and -7.05 in series [4].

As for `Cc1ncsc1-c1ccc([C@H](C)NC(=O)[C@@H]2C[C@@H](O)CN2C(=O)[C@@H](NC(=O)CCCCNC(=O)COc2c(-c3csc(N4CCOCC4)n3)ccc(F)c2F)C(C)(C)C)cc1`, the solubility kinetic at 1 h in series [5] was determined as 12 µM (≈ 10.6 µg/mL); in series [6] it was 17 µM (≈ 15 µg/mL). In addition, the logD result in series [1] is on record as “Bld”. In addition, the logD at 0.5 h in series [2] worked out at 4.98. Further, the “log(Kinetic_solubility)” value in series [3] and in series [4] was -4.72 throughout.

As usually defined, the pKa is the pH at which an ionisable group is half protonated. Read a high pKa as a weaker acid or stronger base. As for `Cc1sc2c(c1C)C(c1ccc(Cl)cc1)=N[C@@H](CC(=O)NCCCN1CCN(CCCNc3cccc4c3C(=O)N(C3CCC(=O)NC3=O)C4=O)CC1)c1nnc(C)n1-2` (stereo partly drawn), the solubility kinetic at 1 h in series [5] was 71 µM (≈ 59.6 µg/mL). This molecule also yielded a pKa in series [7] of 4.49. Besides, the logD at 0.5 h in series [1] came to 3.3; in series [2] it was 3.82. The “log(Kinetic_solubility)” value in series [3] is reported as -4.15; in series [4], -5.15.

As to `Cc1sc2c(c1C)C(c1ccc(Cl)cc1)=N[C@@H](CC(=O)NCCCCCCCCNc1cccc3c1C(=O)N(C1CCC(=O)NC1=O)C3=O)c1nnc(C)n1-2` (stereo partly drawn), the solubility kinetic at 1 h in series [5] came out at 0.05 µM (≈ 0.0392 µg/mL). Further, the pKa in series [7] was found to be 7.98. In series [1], the logD entry was “Bld”. The logD at 0.5 h in series [2] was found to be 5.5. The “log(Kinetic_solubility)” value in series [3] (BLD = below limit of detection) was “Bld”; in series [4], -7.33.

Turning to `O=C(CCCCCCCCCCC(=O)N1CCN(C(=O)c2cc(Cc3n[nH]c(=O)c4ccccc34)ccc2F)CC1)NCCNc1cccc2c1C(=O)N(C1CCC(=O)NC1=O)C2=O` (stereo not drawn), the logD at 0.5 h in series [1] amounted to 3.48; in series [2], 3.64. For the same molecule, the “log(Kinetic_solubility)” value in series [3] (BLD = below limit of detection) is on record as “Bld”; in series [4], -6.13.

For `COc1ccc2c(c1)c(CC(=O)NCCCCC(=O)N[C@H](C(=O)N1C[C@H](O)C[C@H]1C(=O)N[C@@H](C)c1ccc(-c3scnc3C)cc1)C(C)(C)C)c(C)n2C(=O)c1ccc(Cl)cc1`, the log distribution coefficient (logD) entry in series [1] is “Bld”. Also, in series [2], the logD at 0.5 h was found to be 5.47. Moreover, the “log(Kinetic_solubility)” value in series [3] (BLD = below limit of detection) is recorded as “Bld”; in series [4] it was -6.1.

In the case of `COc1ccc2c(c1)c(CC(=O)NCCCCCCC(=O)N[C@H](C(=O)N1C[C@H](O)C[C@H]1C(=O)N[C@@H](C)c1ccc(-c3scnc3C)cc1)C(C)(C)C)c(C)n2C(=O)c1ccc(Cl)cc1`, the logD entry in series [1] is on record as “Bld”. In addition, in series [2], the logD at 0.5 h turned out to be 5.6. Besides, the “log(Kinetic_solubility)” value in series [3] (BLD = below limit of detection) is reported as “Bld”; in series [4], -7.34.

For the molecule `O=C1CCC(N2C(=O)c3cccc(NCCOCCOCCOCCn4cc(COc5ccc(N(C(=O)CCl)C(C(=O)NCCc6ccccc6)c6cccs6)cc5Cl)nn4)c3C2=O)C(=O)N1` (stereo not drawn), the logD at 0.5 h amounted to 3.92 in series [1] and 4.27 in series [2]. The “log(Kinetic_solubility)” value in series [3] (BLD = below limit of detection) is given as “Bld”; in series [4] it was -6.77.

`COc1ccc2c(c1)c(CC(=O)N1CCN(CC(=O)N[C@H](C(=O)N3C[C@H](O)C[C@H]3C(=O)N[C@@H](C)c3ccc(-c4scnc4C)cc3)C(C)(C)C)CC1)c(C)n2C(=O)c1ccc(Cl)cc1`: in series [1], the logD entry is listed as “Bld”. The molecule further gave a logD at 0.5 h in series [2] of 5.3. Also, the “log(Kinetic_solubility)” value was “Bld” in series [3] (BLD = below limit of detection) and -6.62 in series [4].

On to `COc1ccc2c(c1)c(CC(=O)N1CCN(CCC(=O)N[C@H](C(=O)N3C[C@H](O)C[C@H]3C(=O)N[C@@H](C)c3ccc(-c4scnc4C)cc3)C(C)(C)C)CC1)c(C)n2C(=O)c1ccc(Cl)cc1`, for which the logD entry in series [1] is on record as “Bld”. The pH-dependent lipophilicity (logD) at 0.5 h in series [2] turned out to be 5.5. Also, the “log(Kinetic_solubility)” value in series [3] (BLD = below limit of detection) is “Bld”; in series [4], -6.1.

In the case of `CCOC(=O)c1c(C)n(Cc2ccccc2)c2ccc(OCCCCCCCCCCC(=O)N[C@H](C(=O)N3C[C@H](O)C[C@H]3C(=O)N[C@@H](C)c3ccc(-c4scnc4C)cc3)C(C)(C)C)cc12`, the log distribution coefficient (logD) entry in series [1] is “Bld”. For the same molecule, in series [2], the log distribution coefficient (logD) at 0.5 h amounted to 5.2. Moreover, the “log(Kinetic_solubility)” value in series [3] (BLD = below limit of detection) and in series [4] (BLD = below limit of detection) was “Bld” in each case.

Take `CCOC(=O)c1c(C)n(Cc2ccccc2)c2ccc(OCCCCCCCCC(=O)N[C@H](C(=O)N3C[C@H](O)C[C@H]3C(=O)N[C@@H](C)c3ccc(-c4scnc4C)cc3)C(C)(C)C)cc12`: in series [1], the pH-dependent lipophilicity (logD) entry is “Bld”. In addition, in series [2], the logD at 0.5 h was found to be 5.21. Also, the “log(Kinetic_solubility)” value in series [3] (BLD = below limit of detection) and in series [4] (BLD = below limit of detection) was “Bld” each time.

On to `Cc1ncsc1-c1ccc([C@H](C)NC(=O)[C@@H]2C[C@@H](O)CN2C(=O)[C@@H](NC(=O)CCCCCCOc2ccc3c(c2)c(C(=O)O)c(C)n3Cc2ccccc2)C(C)(C)C)cc1`, for which the pH-dependent lipophilicity (logD) result in series [1] was “Bld”. This molecule had a logD at 0.5 h in series [2] of 5. Also, the entries for the “log(Kinetic_solubility)” value in series [3] (BLD = below limit of detection) and in series [4] were “Bld” and -5.8, respectively.

Turning to `CCOC(=O)c1c(C)n(Cc2ccccc2)c2ccc(OCC(=O)NCCCC(=O)N[C@H](C(=O)N3C[C@H](O)C[C@H]3C(=O)N[C@@H](C)c3ccc(-c4scnc4C)cc3)C(C)(C)C)cc12`, the logD entry in series [1] is given as “Bld”. The logD at 0.5 h in series [2] came out at 5.1. Moreover, the “log(Kinetic_solubility)” value is “Bld” in series [3] (BLD = below limit of detection) and -6.23 in series [4].

For the molecule `CCOC(=O)c1c(C)n(Cc2ccccc2)c2ccc(OCCCCCCC(=O)N[C@H](C(=O)N3C[C@H](O)C[C@H]3C(=O)N[C@@H](C)c3ccc(-c4scnc4C)cc3)C(C)(C)C)cc12`, in series [1], the logD result is recorded as “Bld”. The log distribution coefficient (logD) at 0.5 h in series [2] stood at 5.15. Moreover, the “log(Kinetic_solubility)” value in series [3] (BLD = below limit of detection) and in series [4] (BLD = below limit of detection) was “Bld” each time.

On to `CN[C@@H](C)C(=O)N[C@H](C(=O)N1CCC[C@H]1C(=O)N[C@H](C(=O)NCCOCCOCCOc1c(-c2csc(N3CCOCC3)n2)ccc(F)c1F)C(c1ccccc1)c1ccccc1)C1CCCCC1` (H-[NMeA][Chg]P[Dip]-X1), for which the logD result in series [1] was “Bld”. The molecule also showed a logD at 0.5 h in series [2] of 5.1. Besides, the “log(Kinetic_solubility)” value in series [3] is reported as -4.49; in series [4], -4.55.

On to `CN[C@@H](C)C(=O)N[C@H](C(=O)N1CCC[C@H]1C(=O)N[C@H](C(=O)NCCCCCCNC(=O)c1cccc2sc(N3CCOCC3)nc12)C(c1ccccc1)c1ccccc1)C1CCCCC1` (H-[NMeA][Chg]P[Dip]-X2), for which the logD entry in series [1] is on record as “Bld”. In addition, the logD at 0.5 h in series [2] amounted to 5.1. In addition, the “log(Kinetic_solubility)” value in series [3] is -4.66; in series [4] it was -4.72.

For the molecule `N#Cc1ccc(O[C@H]2CC[C@H](NC(=O)c3ccc(N4CCC(CN5CCN(c6cc7c(cc6F)C(=O)N(C6CCC(=O)NC6=O)C7=O)CC5)CC4)nn3)CC2)cc1Cl` (stereo partly drawn) [BAVDEGALUTAMIDE], in series [1], the logD result was “Bld”. The logD at 0.5 h in series [2] turned out to be 5.38. The “log(Kinetic_solubility)” value in series [3] (BLD = below limit of detection) and in series [4] (BLD = below limit of detection) was “Bld” each time.
